Converted amounts (≈) assume the structure as drawn. Numbered stars: 1 amine (or outer) side, 2 acyl side, 3 side chain; on linkers, the order of the positions; unused ones are H or OH. Square brackets hold non-standard residues; d marks the D form. Side chains are listed from the residue outwards. Peptide text beside a SMILES is read from it. * marks the point of attachment. γGlu = O=C(O)[C@H](CCC(=O)[*:2])N[*:1]; Palmitoyl = CCCCCCCCCCCCCCCC(=O)*; Aib = CC(C)(N)C(=O)O
Key:
[1] = biological target: T1, human glucagon receptor (Homo sapiens, UniProt P47871); experiment: cAMP response (HTRF) of HEK-293 cells stably expressing human glucagon receptor; format: cell-based; conditions: Table 8; read-out: EC50 hGlucagon R
T1 construct: expressed in transfected cells; host or cells: HEK-293
Protocol: cAMP content of cells was determined using a kit from Cisbio Corp. (cat. no. 62AM4PEJ) based on HTRF (Homogenous Time Resolved Fluorescence). For preparation, cells were split into T175 culture flasks and grown overnight to near confluency in medium (DMEM/10% FBS). Medium was then removed and cells washed with PBS lacking calcium and magnesium, followed by proteinase treatment with accutase (Sigma-Aldrich cat. no. A6964). Detached cells were washed and resuspended in assay buffer (1×HBSS; 20 mM HEPES, 0.1% BSA, 2 mM IBMX) and cellular density determined. They were then diluted to 400000 cells/ml and 25 μl-aliquots dispensed into the wells of 96-well plates. For measurement, 25 μl of test compound in assay buffer was added to the wells, followed by incubation for 30 minutes at room temperature.
Potencies of peptidic compounds at the GLP-1, glucagon and GIP receptors were determined by exposing cells expressing human glucagon receptor (hGlucagon R), human GIP receptor (hGIP-R) or human GLP-1 receptor (hGLP-1 R) to the listed compounds at increasing concentrations and measuring the formed cAMP as described in Methods.

[2] = Solubility assessment in solubility buffer system A; format: physicochemical; conditions: acetate buffer pH 4.5 with m-cresol; acetate buffer pH 4.5, 2.7 mg/ml m-cresol, target 10 mg/ml
Protocol: Prior to the solubility measurement of a peptide batch, its purity was determined through UPLC/MS.
Therefore solutions from solid samples were prepared in a buffer system with a concentration of 10 mg/mL compound based on the previously determined % purity:
Solubility buffer system A) Acetate Buffer pH 4.5, 100 mM sodium acetate trihydrate, 2.7 mg/ml m-Cresol
UPLC-UV was performed after 1 hour of gentle agitation from the supernatant, which was obtained after 15 min of centrifugation at 2500 RCF (relative centrifugal acceleration).
The solubility was determined by the comparison of the UV peak area of 2 μL-injection of a buffered sample diluted 1:10 with a standard curve of a reference peptide with known concentration. The different UV extinction coefficients of sample and reference peptide were calculated based on the different amino acid sequences and considered in the concentration calculation.
Peptide samples were prepared in solubility buffer system A and solubility was assessed as described in Methods.

[3] = biological target: T2, human GIP receptor (Homo sapiens, UniProt P48546); experiment: cAMP response (HTRF) of HEK-293 cells stably expressing human GIP receptor; format: cell-based; conditions: Table 8; read-out: EC50 hGIP R
T2 construct: expressed in transfected cells; host or cells: HEK-293
T2 sequence (P48546 22-466): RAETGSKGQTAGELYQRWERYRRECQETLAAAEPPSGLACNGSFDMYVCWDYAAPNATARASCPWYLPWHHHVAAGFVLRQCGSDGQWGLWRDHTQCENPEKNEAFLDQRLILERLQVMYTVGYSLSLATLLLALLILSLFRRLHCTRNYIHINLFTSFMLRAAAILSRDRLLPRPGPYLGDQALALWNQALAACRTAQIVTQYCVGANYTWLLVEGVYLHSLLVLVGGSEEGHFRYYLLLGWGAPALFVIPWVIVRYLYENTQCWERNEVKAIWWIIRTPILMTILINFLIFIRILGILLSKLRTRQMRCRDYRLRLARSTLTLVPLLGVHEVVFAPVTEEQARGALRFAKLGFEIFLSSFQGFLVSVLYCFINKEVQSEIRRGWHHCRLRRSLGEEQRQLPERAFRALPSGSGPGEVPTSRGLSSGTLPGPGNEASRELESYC
In short: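 HEK-293 cells stably expressing human GIP receptor were incubated with compound for 30 min at room temperature in HBSS/20 mM HEPES/0.1% BSA with 2 mM IBMX. cAMP was measured by HTRF (665/616 nm ratio) after 1 h with detection reagents in lysis buffer; EC50 is the concentration giving 50% of maximal response.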

T1 sequence (P47871 26-477): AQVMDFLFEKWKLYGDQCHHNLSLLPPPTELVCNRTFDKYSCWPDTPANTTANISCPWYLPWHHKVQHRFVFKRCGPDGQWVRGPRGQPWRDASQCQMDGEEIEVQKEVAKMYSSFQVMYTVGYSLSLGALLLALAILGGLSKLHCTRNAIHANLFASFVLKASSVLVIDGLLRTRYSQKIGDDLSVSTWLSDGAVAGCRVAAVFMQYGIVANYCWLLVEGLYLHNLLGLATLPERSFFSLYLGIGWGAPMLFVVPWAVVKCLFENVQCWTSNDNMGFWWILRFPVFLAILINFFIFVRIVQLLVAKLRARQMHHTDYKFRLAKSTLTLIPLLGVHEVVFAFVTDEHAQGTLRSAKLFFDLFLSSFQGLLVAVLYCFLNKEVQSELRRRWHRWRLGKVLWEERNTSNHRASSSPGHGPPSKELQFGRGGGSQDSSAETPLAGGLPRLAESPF

Row | Compound | EC50 [1] [pM] | solubility at 1 h [2] [mg/mL] | EC50 [3] [pM]
1 | CCCCCCCCCCCCCCCC(=O)N[C@@H](CCC(=O)N[C@@H](CCC(=O)NCCCC[C@H](NC(=O)[C@H](CC(C)C)NC(=O)[C@H](CCCCN)NC(=O)[C@H](CO)NC(=O)[C@H](CC(C)C)NC(=O)[C@H](CC(=O)O)NC(=O)[C@H](CO)NC(=O)[C@@H](NC(=O)[C@H](Cc1ccccc1)NC(=O)[C@@H](NC(=O)CNC(=O)[C@H](Cc1c[nH]cn1)NC(=O)C(C)(C)NC(=O)[C@@H](N)Cc1c[nH]cn1)[C@@H](C)O)[C@@H](C)O)C(=O)N[C@@H](CCC(=O)O)C(=O)N[C@@H](CCC(=O)O)C(=O)N[C@@H](CCC(N)=O)C(=O)N[C@@H](CCCNC(=N)N)C(=O)N[C@@H](CCC(N)=O)C(=O)N[C@@H](CCCCN)C(=O)N[C@@H](CCC(=O)O)C(=O)N[C@@H](Cc1ccccc1)C(=O)N[C@H](C(=O)N[C@@H](CCC(=O)O)C(=O)N[C@@H](Cc1c[nH]c2ccccc12)C(=O)N[C@@H](CC(C)C)C(=O)N[C@@H](CCCCN)C(=O)N[C@@H](C)C(=O)NCC(=O)NCC(=O)N1CCC[C@H]1C(=O)N1CCC[C@H]1C(=O)N[C@@H](CO)C(=O)NC(C)(C)C(=O)N[C@@H](CCCCN)C(=O)N1CCC[C@H]1C(=O)N1CCC[C@H]1C(=O)N1CCC[C@H]1C(=O)N[C@@H](CCCCN)C(N)=O)[C@@H](C)CC)C(=O)O)C(=O)O [SEQ ID NO: 8, H-Aib-H-G-T-F-T-S-D-L-S-K-L-K[gGlu-gGlu-Palm]-E-E-Q-R-Q-K-E-F-I-E-W-L-K-A-G-G-P-P-S-Aib-K-P-P-P-K-NH2] | 2 | 9.5 (≈ 1940 µM) | 
2 | CCCCCCCCCCCCCCCC(=O)N[C@@H](CCC(=O)N[C@@H](CCC(=O)NCCCC[C@H](NC(=O)[C@H](CC(C)C)NC(=O)[C@H](CCCCN)NC(=O)[C@H](CO)NC(=O)[C@H](CC(C)C)NC(=O)[C@H](CC(=O)O)NC(=O)[C@H](CO)NC(=O)[C@@H](NC(=O)[C@H](Cc1ccccc1)NC(=O)[C@@H](NC(=O)CNC(=O)[C@H](Cc1c[nH]cn1)NC(=O)C(C)(C)NC(=O)[C@@H](N)Cc1c[nH]cn1)[C@@H](C)O)[C@@H](C)O)C(=O)N[C@@H](CCC(=O)O)C(=O)N[C@@H](CCC(=O)O)C(=O)N[C@@H](CCC(N)=O)C(=O)N[C@@H](CCCNC(=N)N)C(=O)N[C@@H](CCC(N)=O)C(=O)NC(C)(C)C(=O)N[C@@H](CCC(=O)O)C(=O)N[C@@H](Cc1ccccc1)C(=O)N[C@H](C(=O)N[C@@H](CCC(=O)O)C(=O)N[C@@H](Cc1c[nH]c2ccccc12)C(=O)N[C@@H](CC(C)C)C(=O)N[C@@H](CCCCN)C(=O)N[C@@H](C)C(=O)N[C@H](C)C(=O)NCC(=O)N1CCC[C@H]1C(=O)N1CCC[C@H]1C(=O)N[C@@H](CO)C(=O)NC(C)(C)C(=O)N[C@@H](CCCCN)C(=O)N1CCC[C@H]1C(=O)N1CCC[C@H]1C(=O)N1CCC[C@H]1C(=O)N[C@@H](CCCCN)C(N)=O)[C@@H](C)CC)C(=O)O)C(=O)O [SEQ ID NO: 11, H-Aib-H-G-T-F-T-S-D-L-S-K-L-K[gGlu-gGlu-Palm]-E-E-Q-R-Q-Aib-E-F-I-E-W-L-K-A-dAla-G-P-P-S-Aib-K-P-P-P-K-NH2] (H-H[Aib]HGTFTSDLSKLK([γGlu-γGlu-Palmitoyl])EEQRQ[Aib]EFIEWLKA[dA]GPPS[Aib]KPPPK-NH2) | 2.1 | > 9.8 | 1.5
